Data as given in patent publication US9149038B2, “4-amino-6-(heterocyclic)picolinates and 6-amino-2-(heterocyclic)pyrimidine-4-carboxylates and their use as herbicides” (Dow AgroSciences LLC, priority 2013, dated 2015).
Like-named read-outs stand apart in the source and are kept apart here.

Key:
[1] = tested on: Key Broadleaf Weed and Crop Species; assay: Post-Emergent Test II: postemergent herbicidal activity, visual rating after 14 d (Table 7); assay type: in vivo; conditions: post-emergence, 336 h; for pest or weed control at 35 g/ha: 35 g ai/ha; for pest or weed control at 70 g/ha: 70 g ai/ha; for pest or weed control at 140 g/ha: 140 g ai/ha
Procedure, shortened: (§1)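 Track-sprayed young seedlings (first/second true leaf) at 187 L/ha across a 2-fold rate series from the high rate down to 1/16×. Kept in greenhouse at 23-29° C day, subirrigated. Injury rated by eye after 14 d, 0 = no injury, 100 = complete kill.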

[2] = tested on: Key Grass and Sedge Weeds as well as Grass Crops; assay: Post-Emergent Test II: postemergent herbicidal activity, visual rating after 14 d (Table 8); assay type: in vivo; conditions: post-emergence, 336 h; for pest or weed control at 35 g/ha: 35 g ai/ha; for pest or weed control at 70 g/ha: 70 g ai/ha; for pest or weed control at 140 g/ha: 140 g ai/ha
Procedure, shortened: as §1

[3] = ABUTH: velvetleaf (Abutilon theophrasti), read-out: Visual Growth Reduction (%) 14 Days After Application ABUTH
[4] = AMARE: redroot pigweed (Amaranthus retroflexus), read-out: Visual Growth Reduction (%) 14 Days After Application AMARE
[5] = BRSNN: oilseed rape, canola (Brassica napus), read-out: Visual Growth Reduction (%) 14 Days After Application BRSNN
[6] = CHEAL: lambsquarters (Chenopodium album), read-out: Visual Growth Reduction (%) 14 Days After Application CHEAL
[7] = EPHHL: wild poinsettia (Euphorbia heterophylla), read-out: Visual Growth Reduction (%) 14 Days After Application EPHHL
[8] = HELAN: sunflower (Helianthus annuus), read-out: Visual Growth Reduction (%) 14 Days After Application HELAN
[9] = barnyardgrass (Echinochloa crus-galli), read-out: Visual Growth Reduction (%) 14 Days After Application, ECHCG
[10] = giant foxtail (Setaria faberi), read-out: Visual Growth Reduction (%) 14 Days After Application, SETFA
[11] = maize, corn (Zea mays), read-out: Visual Growth Reduction (%) 14 Days After Application, ZEAMX
[12] = rice (Oryza sativa), read-out: Visual Growth Reduction (%) 14 Days After Application, ORYSA
[13] = wheat, spring (Triticum aestivum), read-out: Visual Growth Reduction (%) 14 Days After Application, TRZAS
[14] = yellow nutsedge (Cyperus esculentus), read-out: Visual Growth Reduction (%) 14 Days After Application, CYPES

Structure (SMILES): Nc1cc(-c2ccc(F)c3c2OC(F)(F)O3)nc(C(=O)O)c1Cl [Compound 89]
- pest or weed control at 35 g/ha [1, 3]: 0 to 29%
- pest or weed control at 70 g/ha [1, 3]: 75 to 84%
- pest or weed control at 140 g/ha [1, 3]: 75 to 84%
- pest or weed control at 35 g/ha [1, 4]: 95 to 100%
- pest or weed control at 70 g/ha [1, 4]: 95 to 100%
- pest or weed control at 140 g/ha [1, 4]: 95 to 100%
- pest or weed control at 35 g/ha [1, 5]: 85 to 94%
- pest or weed control at 70 g/ha [1, 5]: 85 to 94%
- pest or weed control at 140 g/ha [1, 5]: 95 to 100%
- pest or weed control at 35 g/ha [1, 6]: 95 to 100%
- pest or weed control at 70 g/ha [1, 6]: 95 to 100%
- pest or weed control at 140 g/ha [1, 6]: 95 to 100%
- pest or weed control at 35 g/ha [1, 7]: 0 to 29%
- pest or weed control at 70 g/ha [1, 7]: 0 to 29%
- pest or weed control at 140 g/ha [1, 7]: 0 to 29%
- pest or weed control at 35 g/ha [1, 8]: 60 to 74%
- pest or weed control at 70 g/ha [1, 8]: 60 to 74%
- pest or weed control at 140 g/ha [1, 8]: 75 to 84%
- pest or weed control at 35 g/ha [2, 9]: 0 to 29%
- pest or weed control at 70 g/ha [2, 9]: 0 to 29%
- pest or weed control at 140 g/ha [2, 9]: 0 to 29%
- pest or weed control at 35 g/ha [2, 10]: 0 to 29%
- pest or weed control at 70 g/ha [2, 10]: 0 to 29%
- pest or weed control at 140 g/ha [2, 10]: 0 to 29%
- pest or weed control at 35 g/ha [2, 11]: 0 to 29%
- pest or weed control at 70 g/ha [2, 11]: 0 to 29%
- pest or weed control at 140 g/ha [2, 11]: 0 to 29%
- pest or weed control at 35 g/ha [2, 12]: 0 to 29%
- pest or weed control at 70 g/ha [2, 12]: 0 to 29%
- pest or weed control at 140 g/ha [2, 12]: 0 to 29%
- pest or weed control at 35 g/ha [2, 13]: 0 to 29%
- pest or weed control at 70 g/ha [2, 13]: 0 to 29%
- pest or weed control at 140 g/ha [2, 13]: 0 to 29%
- pest or weed control at 35 g/ha [2, 14]: 0 to 29%
- pest or weed control at 70 g/ha [2, 14]: 0 to 29%
- pest or weed control at 140 g/ha [2, 14]: 0 to 29%
